According to US11174249B2, “Cooling composition” (FIRMENICH SA, priority 2017, dated 2021):

Test: Solubility of compound of formula (I) in flavor solvents (Crystalline PV instrument, temperature solubility curve)
Format: physicochemical
Settings: 22° C.
Procedure: A precise amount of the powder was weighed into a transparent 8 mL tube, 3 g of solvent was added, and the tube was sealed with a cap equipped with an integrated overhead stirrer. The tube was immediately transferred to a Crystalline PV instrument (Technobis Crystallization Systems, The Netherlands), and placed into a precooled reactor at 3° C. The sample was heated and stirred in the reactor at a rate of 0.1° C./min up to 60° C. Each reactor of the Crystalline PV instrument is equipped with an LED sensor and a digital camera, and data is acquired as real-time transmittance to detect turbidity or as video images for visualization. The solubility temperature is reached when all particles have dissolved. In order to establish a temperature solubility curve, at least 4 samples with different concentrations are measured. The data are fitted to an exponential curve according to the model of Hoffmann, and solubility as a function of temperature can be calculated by extrapolation. Under this method, the solubility of N-(1H-pyrazol-3-yl)-N-(thiophen-2-ylmethyl)-2-(p-tolyloxy)acetamide in different solvents, which could be used in flavor application, was measured.

Row | Structure (SMILES) | Solubility (in Ethyl lactate) [%] | Solubility (in Augeo Clean Multi) [%] | Solubility (in Dowanol TPM) [%] | Solubility (in Ethanol abs.) [%] | Solubility (in Mint piperita) [%] | Solubility (in PG) [%] | Solubility (in triacetin) [%] | Solubility (in triethyl citrate) [%]
1 | CCc1ccc(OCC(=O)N(Cc2cccs2)c2cc[nH]n2)cc1 [2-(4-ethylphenoxy)-N-(1H-pyrazol-3-yl)-N-(thiophen-2-ylmethyl)acetamide] | 26.1 |  |  |  |  |  |  | 
2 | Cc1ccc(OCC(=O)N(Cc2cccs2)c2ccn[nH]2)cc1 [N-(1H-pyrazol-3-yl)-N-(thiophen-2-ylmethyl)-2-(p-tolyloxy)acetamide] | 8.6 | 5.7 | 5.4 | 3.3 | 2.1 | 0.4 | 1.2 | 3.1
